Laboratory results published in paper PMC3050433, “The effects of maribavir on the autophosphorylation of ganciclovir resistant mutants of the cytomegalovirus UL97 protein” (Herpesviridae, 2010).
Residue numbers refer to the chain shown, from its start. Entries after “also recorded” stand apart in the source; their conditions may differ.

Legend:
Conditions in all cases: wild type normalised to 100%
UL97 D456A = molecular target: T1, UL97 D456A (Human cytomegalovirus, UniProt Q68101, D456A); test: GCV phosphorylation in baculovirus-infected Sf21 insect cells, D456A; format: cell-based
T1 construct: PCR reaction to generate the full length UL97; honey bee melittin secretion signal (N); made in house; host or cells: Sf21 insect cells, recombinant baculovirus (pMelBac C)
T1 sequence (Q68101 1-707 D456A): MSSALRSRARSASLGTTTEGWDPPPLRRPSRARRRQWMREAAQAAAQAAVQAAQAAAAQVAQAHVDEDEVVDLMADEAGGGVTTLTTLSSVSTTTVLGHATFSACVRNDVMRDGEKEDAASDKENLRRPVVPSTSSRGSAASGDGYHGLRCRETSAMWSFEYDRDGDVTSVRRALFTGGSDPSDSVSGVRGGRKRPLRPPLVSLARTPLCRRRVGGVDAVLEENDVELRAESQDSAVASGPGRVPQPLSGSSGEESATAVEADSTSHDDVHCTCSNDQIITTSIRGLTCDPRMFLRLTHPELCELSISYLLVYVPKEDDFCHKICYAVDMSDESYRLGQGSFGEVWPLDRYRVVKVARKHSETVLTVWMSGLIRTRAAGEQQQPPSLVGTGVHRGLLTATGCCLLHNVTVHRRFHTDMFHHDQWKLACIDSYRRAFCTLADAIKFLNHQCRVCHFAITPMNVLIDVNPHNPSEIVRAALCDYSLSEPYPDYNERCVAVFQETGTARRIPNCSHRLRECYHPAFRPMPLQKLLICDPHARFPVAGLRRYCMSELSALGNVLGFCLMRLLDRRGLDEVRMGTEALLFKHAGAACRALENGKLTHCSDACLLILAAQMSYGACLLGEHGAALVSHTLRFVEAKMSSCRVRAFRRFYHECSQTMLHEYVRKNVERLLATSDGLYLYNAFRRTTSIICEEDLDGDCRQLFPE
Procedure: (§1) Sf21 insect cells were infected with wild type or mutant UL97 recombinant baculoviruses at an m.o.i. of 10. After 48 h incubation at 28°C, the culture medium was replaced with fresh medium containing 1.0 mM GCV and [^3H] GCV (0.55 Mbq, Moravek Radiochemicals, California, USA) After a further 24 hours of incubation, nucleotides were harvested by acid hydrolysis (0.5 M perchloric acid), neutralisation to pH 7.5 (2.5 M KOH, 1.5 M KH2PO4) and centrifugation (13000 × g). 50 μl aliquots of supernatant were spotted onto 20 mm diameter DEAE-coated DE81 chromatographic paper discs and the monophosphorylated GCV allowed to bind. The discs were washed twice in 3 ml 10 mM ammonium acetate for 10 minutes and twice in 95% ethanol for 10 minutes. After drying 5 ml of sigmafluor was added (Sigma Chemicals, Dorset, UK) and the radioactivity determined by liquid scintillation counting.

UL97 K355Q = molecular target: T2, UL97 K355Q (Human cytomegalovirus, UniProt Q68101, K355Q); test: GCV phosphorylation in baculovirus-infected Sf21 insect cells, K355Q; format: cell-based
T2 construct: PCR reaction to generate the full length UL97; honey bee melittin secretion signal (N); expressed in transfected cells; host or cells: Sf21 insect cells infected with recombinant baculovirus
T2 sequence (Q68101 1-707 K355Q): T1 sequence (Q68101 1-707 D456A) with K355Q, A456D
Procedure: as §1

UL97 N461G = test: GCV phosphorylation in baculovirus-infected Sf21 insect cells, N461G; format: cell-based, human cytomegalovirus
Procedure: as §1

Nc1nc(O)c2ncn(COC(CO)CO)c2n1 [GCV, ganciclovir]
GCV phosphorylation relative to wild type UL97 (UL97 D456A): no effect on GCV phosphorylation
GCV phosphorylation relative to wild type UL97 (UL97 K355Q): unable to phosphorylate GCV; also recorded: complete loss of GCV kinase activity
GCV phosphorylation relative to wild type UL97 (UL97 N461G): complete loss of GCV kinase activity
